Patent publication US5100916A, “Carbamic acid ester for treatment of addiction to alcohol” (Bio-Tox Diagnostics Kommanditbolag, priority 1988, dated 1992)

Experiments:
[1] = molecular target: T1, aldehyde dehydrogenase (low Km) (Rattus norvegicus, UniProt P11884); experiment: In vitro inhibition of aldehyde dehydrogenase of low Km, rat liver homogenate; type: biochemical; details: 1 h incubation, 2760 μmol/liter, water ref. = 100, double determinations, 4 rats, read-out: Residual activity of aldehyde dehydrogenase (Low Km in % of ref. value)
T1 construct: The aldehyde dehydrogenase activity in the homogenate after incubation for 1 h; from tissue; host or cells: rat liver homogenate
T1 sequence (P11884 20-519): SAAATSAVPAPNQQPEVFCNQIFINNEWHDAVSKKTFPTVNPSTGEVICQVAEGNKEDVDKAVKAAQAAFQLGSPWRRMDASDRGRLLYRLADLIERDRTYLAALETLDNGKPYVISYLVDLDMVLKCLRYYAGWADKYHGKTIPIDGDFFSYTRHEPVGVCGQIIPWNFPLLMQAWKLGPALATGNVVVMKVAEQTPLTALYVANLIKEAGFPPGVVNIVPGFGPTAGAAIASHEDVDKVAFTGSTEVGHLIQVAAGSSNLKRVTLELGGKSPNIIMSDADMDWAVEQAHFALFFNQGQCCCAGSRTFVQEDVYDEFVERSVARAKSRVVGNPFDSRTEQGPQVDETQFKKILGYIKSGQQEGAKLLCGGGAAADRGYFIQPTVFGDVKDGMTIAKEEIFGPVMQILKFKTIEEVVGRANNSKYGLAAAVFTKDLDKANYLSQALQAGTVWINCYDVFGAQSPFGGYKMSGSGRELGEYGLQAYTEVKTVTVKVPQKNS
Procedure: (§1) METHOD FOR INHIBITING ALDEHYDE DEHYDROGENASE
(§2) Fractionation of rat liver homogenates was performed according to Tottmar et al, Biochem. J. 1973:135:577. The aldehyde dehydrogenase activity in the homogenate after incubation for 1 h with different thiocarbamic acid esters (see Table 1) was measured spectrophotometrically in 50 μl aliquots by following the reduction of NAD to NADH at 340 nm at 37° C. in the presence of the substrate acetaldehyde […], as described by Tottmar and Marcher (Acta Pharmacol. et Toxicol. 1976:38:366).
(§3) In vitro inhibition of aldehyde dehydrogenase of low Km
(§4) The values are X±SD of double determinations, on the one hand in homogenates from 4 rats and, on the other hand, in bovine liver (last two values in Table 1).
(§5) The concentration=2760 μmol/liter for all compounds, except the last two compounds for which the concentration was 3.0 mmol/liter.

[2] = system: aldehyde dehydrogenase (low Km); experiment: In vitro inhibition of aldehyde dehydrogenase, measured on bovine liver; type: biochemical; details: 3.0 mmol/liter, water ref. = 100, double determinations, 60 min
Procedure: as §1, §2, §3
*Measured on bovine liver
as §4, §5

rats = experiment: "Antabuse-alcohol" reaction on rats by tonometry (diastolic blood pressure after ethanol); type: in vivo, rat; details: N = 3, salt water 92.5 ± 5.2
Procedure: Method of assessing the "Antabuse®-alcohol" reaction on rats by tonometry
These measurements were performed on a selected compound. The substance employed is diethyl thiocarbamic acid-S-methyl ester (referred to as DTSM hereinafter).
Male rats having a body weight of 300-400 g were anaesthetised with urethane 1.25 g/kg i.p. On a group of 4 rats, a catheter filled with heparin-salt water was inserted by operative surgery in one carotid artery, and the blood pressure was recorded before and after intraperitoneal injection of ethanol (1 g/kg, 10 ml/kg of 10% v/v ethanol in water). Two other groups of 3 rats each were treated intraperitoneally with DTSM for 1 and 2 hours, respectively, whereupon ethanol (1 g/kg, 10 ml/kg of 10% v/v ethanol in water) was injected intraperitoneally. The blood pressure was measured before the injection of ethanol and for 30 min. after injection, after which time the blood pressure has usually stabilized itself (Hellstrom and Tottmar: Pharmacology Biochemistry and Behaviour 1982:17:1103).

[3] = cited from earlier work
[4] = cited from earlier work; remark: listed apart in the source
[5] = system: acetaldehyde dehydrogenase; details: cited from earlier work
patients = details: person takes disulfiram and then drinks alcohol; cited from earlier work

SMILES | remaining activity at 2760 µM [1] | also measured
CSC(=O)N1CCCC1 | 9% | –
CSC(=O)N1CCCCC1 | 16% | –
CSC(=O)NCCc1ccc(O)cc1 | 10% | –
CSC(=O)NCCc1ccccc1 | 0% | –
CSC(=O)Nc1ccccc1 | 8% | –
COC(=O)N1CCCCC1 [1-piperidine carbamic acid-methyl ester] | – | Residual activity of aldehyde dehydrogenase (Low Km in % of ref. value) [2]: 76 % of ref. value
CCN(CC)C(=O)SC [DTSM, diethyl thiocarbamic acid-S-methyl ester] | 73% | Diastolic blood pressure of rats 30 min. after ethanol injection, % of own ref. value (X ± SD) (rats; DTSM 30 mg/kg i.p. 1 hour before ethanol 1 g/kg i.p., p <0.01): 77.1 ± 3.6 % of own ref. value; Diastolic blood pressure of rats 30 min. after ethanol injection, % of own ref. value (X ± SD) (rats; DTSM 30 mg/kg i.p. 2 hours before ethanol 1 g/kg i.p., p <0.05): 57.6 ± 28 % of own ref. value
CCN(CC)C(=O)OC [Diethyl carbamic acid-methyl ester] | – | Residual activity of aldehyde dehydrogenase (Low Km in % of ref. value) [2]: 87 % of ref. value
CSC(=O)N(C)C [X = CH3, R = CH3, R1 = CH3, dimethyl thiocarbamic acid-S-methyl ester] | 16% | –
CCN(CC)C(=S)SSC(=S)N(CC)CC [disulfiram] | – | t 1/2 of metabolism in blood [3]: 4 min; solubility in water [4]: very sparingly soluble in water; blocking of liver enzyme acetaldehyde dehydrogenase [5]: irreversible blocking; disulfiram/alcohol reaction (patients): nausea, a ruddy complexion, palpitation of the heart, low blood pressure, vomiting, and a pulsating headache

Further lines, with some results ahead:

remaining activity at 2760 µM [1] | SMILES | also measured
11% | CCCN(CCC)C(=O)SC | –
8% | CCSC(=O)N(CC)CC [X = CH2 CH3, R = CH2 CH3, R1 = CH2 CH3, diethyl thiocarbamic acid-S-ethyl ester] | –
